# Legend:
# Format in all cases: functional, cell-based
# Plasmodium falciparum = assay: Anti-plasmodial activity against chloroquine-sensitive Plasmodium falciparum 3D7 infected in human erythrocytes after 50 hrs by SYBR green dye based fluorescence assay; conditions: 3D7, 50 h
# PANC-1 = assay: Antiproliferative activity against human PANC1 cells after 48 hrs by SRB assay; conditions: PANC-1, 48 h
# MDA-MB-231 = assay: Antiproliferative activity against human MDA-MB-231 cells after 48 hrs by SRB assay; conditions: MDA-MB-231, 48 h
# SiHa = assay: Antiproliferative activity against human SiHa cells after 48 hrs by SRB assay
# IMR-32 = assay: Antiproliferative activity against human IMR32 cells after 48 hrs by SRB assay; conditions: IMR-32, 48 h
Structure (SMILES),IC50 (Plasmodium falciparum),IC50 (PANC-1),IC50 (MDA-MB-231),IC50 (SiHa),IC50 (IMR-32)
CC(=O)O[C@@H]1C[C@H]2C(C)(C)C(=O)C=C[C@]2(C)[C@H]2CC[C@@]3(C)[C@H](c4ccoc4)/C(=N\OC(=O)c4ccc(Br)cc4)[C@H]4O[C@]43[C@@]21C,9.4 µM,> 100 µM,> 100 µM,> 100 µM,> 100 µM
CC(=O)O[C@@H]1C[C@H]2C(C)(C)C(=O)C3OC3[C@]2(C)[C@H]2CC[C@@]3(C)[C@H](c4ccoc4)C(=O)[C@H]4O[C@]43[C@@]21C (some centres undefined),15.5 µM,> 100 µM,23.2 µM,> 100 µM,> 100 µM
CC(=O)O[C@@H]1C[C@H]2C(C)(C)C(=O)CC[C@]2(C)[C@H]2CC[C@@]3(C)[C@H](c4ccoc4)C(=O)[C@H]4O[C@]43[C@@]21C,7.5 µM,> 100 µM,20.2 µM,> 100 µM,> 100 µM
COc1cccc2c1C(=O)c1c(O)c3c(c(O)c1C2=O)C[C@@](O)(C(=O)CO)C[C@@H]3O[C@H]1C[C@H](N)[C@H](O)[C@H](C)O1 [DOXORUBICIN],,3.2 µM,1.8 µM,1.9 µM,3.2 µM
CC(=O)O[C@@H]1C[C@H]2C(C)(C)C(=O)C=C[C@]2(C)[C@H]2CC[C@@]3(C)[C@H](c4ccoc4)C(O)[C@H]4O[C@]43[C@@]21C (some centres undefined),13.1 µM,> 100 µM,47.8 µM,> 100 µM,> 100 µM
CC(=O)O[C@@H]1C[C@H]2C(C)(C)C(=O)C=C[C@]2(C)[C@H]2CC[C@@]3(C)[C@H](c4ccoc4)/C(=N\OCc4cn(-c5ccccc5C#N)nn4)[C@H]4O[C@]43[C@@]21C,1.7 µM,> 100 µM,> 100 µM,> 100 µM,> 100 µM
CCC(=O)Nc1ccc(-n2cc(CO/N=C3/[C@H]4O[C@]45[C@@]4(C)[C@H](CC[C@@]5(C)[C@@H]3c3ccoc3)[C@@]3(C)C=CC(=O)C(C)(C)[C@@H]3C[C@H]4OC(C)=O)nn2)cc1,6.7 µM,> 100 µM,> 100 µM,> 100 µM,> 100 µM
COc1cccc(C(=O)O/N=C2/[C@H]3O[C@]34[C@@]3(C)[C@H](CC[C@@]4(C)[C@@H]2c2ccoc2)[C@@]2(C)C=CC(=O)C(C)(C)[C@@H]2C[C@H]3OC(C)=O)c1,8 µM,> 100 µM,> 100 µM,> 100 µM,> 100 µM
CC(=O)O[C@@H]1C[C@H]2C(C)(C)C(=O)C=C[C@]2(C)[C@H]2CC[C@@]3(C)[C@H](c4ccoc4)/C(=N\OC(=O)c4ccccc4Br)[C@H]4O[C@]43[C@@]21C,12.2 µM,> 100 µM,> 100 µM,> 100 µM,> 100 µM
CC(=O)O[C@@H]1C[C@H]2C(C)(C)C(=O)C=C[C@]2(C)[C@H]2CC[C@@]3(C)[C@H](c4ccoc4)/C(=N\OCc4cn(-c5ccc(C)cc5)nn4)[C@H]4O[C@]43[C@@]21C,4.2 µM,> 100 µM,> 100 µM,> 100 µM,> 100 µM
CC(=O)O[C@@H]1C[C@H]2C(C)(C)C(=O)C=C[C@]2(C)[C@H]2CC[C@@]3(C)[C@H](c4ccoc4)/C(=N\OC(=O)c4cc(Br)ccc4[N+](=O)[O-])[C@H]4O[C@]43[C@@]21C,4.1 µM,> 100 µM,> 100 µM,> 100 µM,> 100 µM
CC(=O)O[C@@H]1C[C@H]2C(C)(C)C(=O)C=C[C@]2(C)[C@H]2CC[C@@]3(C)[C@H](c4ccoc4)/C(=N\OCc4cn(-c5cc(Cl)c(Cl)cc5Cl)nn4)[C@H]4O[C@]43[C@@]21C,2.3 µM,> 100 µM,> 100 µM,> 100 µM,> 100 µM
CC(=O)O[C@@H]1C[C@H]2C(C)(C)C(O)CC[C@]2(C)[C@H]2CC[C@@]3(C)[C@H](c4ccoc4)C(O)[C@H]4O[C@]43[C@@]21C (some centres undefined),21.4 µM,> 100 µM,15.9 µM,> 100 µM,> 100 µM
CC(=O)O/N=C1/[C@H]2O[C@]23[C@@]2(C)[C@H](CC[C@@]3(C)[C@@H]1c1ccoc1)[C@@]1(C)C=CC(=O)C(C)(C)[C@@H]1C[C@H]2OC(C)=O,9.3 µM,> 100 µM,> 100 µM,> 100 µM,> 100 µM
COc1ccc(OC)c(/C=C/C(=O)O[C@@H]2C[C@H]3C(C)(C)C(=O)C=C[C@]3(C)[C@H]3CC[C@@]4(C)[C@H](c5ccoc5)C(=O)[C@H]5O[C@]54[C@@]32C)c1,8.8 µM,> 100 µM,> 100 µM,> 100 µM,> 100 µM
CC(=O)O[C@@H]1C[C@H]2C(C)(C)C(=O)CC[C@]2(C)[C@H]2CC[C@@]3(C)[C@H](C4CCOC4)C(=O)[C@H]4O[C@]43[C@@]21C (some centres undefined),78.7 µM,> 100 µM,> 100 µM,> 100 µM,> 100 µM
CCCC(=O)O/N=C1/[C@H]2O[C@]23[C@@]2(C)[C@H](CC[C@@]3(C)[C@@H]1c1ccoc1)[C@@]1(C)C=CC(=O)C(C)(C)[C@@H]1C[C@H]2OC(C)=O,9.3 µM,> 100 µM,> 100 µM,> 100 µM,> 100 µM
CCC(=O)O[C@@H]1C[C@H]2C(C)(C)C(=O)C=C[C@]2(C)[C@H]2CC[C@@]3(C)[C@H](c4ccoc4)C(=O)[C@H]4O[C@]43[C@@]21C,7.1 µM,,,,
CC(=O)O[C@@H]1C[C@H]2C(C)(C)C(O)C=C[C@]2(C)[C@H]2CC[C@@]3(C)[C@H](c4ccoc4)C(O)[C@H]4O[C@]43[C@@]21C (some centres undefined),35.5 µM,> 100 µM,> 100 µM,> 100 µM,> 100 µM
CC1(C)C(=O)C=C[C@]2(C)[C@H]3CC[C@@]4(C)[C@H](c5ccoc5)/C(=N\O)[C@H]5O[C@]54[C@]3(C)[C@H](O)C[C@@H]12,20 µM,> 100 µM,> 100 µM,> 100 µM,> 100 µM
COc1ccc(C[C@@H](O)c2cc(OC)c(OC)c(OC)c2)cc1O [COMBRETASTATIN],,3.5 µM,2.3 µM,2 µM,2.4 µM
CC(=O)O[C@@H]1C[C@H]2C(C)(C)C(=O)C=C[C@]2(C)[C@H]2CC[C@@]3(C)[C@H](c4ccoc4)/C(=N\OC(=O)c4cccc([N+](=O)[O-])c4)[C@H]4O[C@]43[C@@]21C,28.6 µM,> 100 µM,> 100 µM,> 100 µM,> 100 µM
CC1(C)C(=O)C2OC2[C@]2(C)[C@H]3CC[C@@]4(C)[C@H](c5ccoc5)C(=O)[C@H]5O[C@]54[C@]3(C)C(=O)C[C@@H]12 (some centres undefined),131 µM,> 100 µM,> 100 µM,> 100 µM,> 100 µM
CC(=O)O[C@@H]1C[C@H]2C(C)(C)C(=O)C(O)C(O)[C@]2(C)[C@H]2CC[C@@]3(C)[C@H](c4ccoc4)C(=O)[C@H]4O[C@]43[C@@]21C (some centres undefined),52.5 µM,> 100 µM,29.9 µM,> 100 µM,> 100 µM

# From ChEMBL document CHEMBL4020729, “Synthesis and evaluation of anti-plasmodial and cytotoxic activities of epoxyazadiradione derivatives” (Eur J Med Chem, 2017)
